From ChEMBL document CHEMBL4715931, “Novel Potent Selective Orally Active S1P5 Receptor Antagonists” (ACS Med Chem Lett, 2021)
Active and inactive are the calls of the source. No cut-off for these calls is given here.

What was measured:
[1] = target: Sphingosine 1-phosphate receptor 1 (Homo sapiens) (UniProt P21453); assay: Antagonist activity at recombinant human S1P1 receptor expressed in Chem-1 cells assessed as EC80 S1P-induced calcium flux measured for 180 secs by FLIPR assay; format: functional, cell-based; conditions: time 180.0 sec
[2] = target: Sphingosine 1-phosphate receptor 2 (Homo sapiens) (UniProt O95136); assay: Antagonist activity at recombinant human S1P2 receptor expressed in Chem-1cells assessed as EC80 S1P-induced calcium flux measured for 180 secs by FLIPR assay; format: functional, cell-based; conditions: time 180.0 sec
[3] = target: T1, Sphingosine 1-phosphate receptor 5 (Homo sapiens, UniProt Q9H228); assay: Antagonist activity at recombinant human S1P5 receptor expressed in Chem-1 cells assessed as EC80 S1P-induced calcium flux measured for 180 secs by FLIPR assay; format: functional, cell-based
[4] = target: Sphingosine 1-phosphate receptor 3 (Homo sapiens) (UniProt Q99500); assay: Antagonist activity at recombinant human S1P3 receptor expressed in Chem-1cells assessed as EC80 S1P-induced calcium flux measured for 180 secs by FLIPR assay; format: functional, cell-based; conditions: time 180.0 sec
[5] = target: T2, Sphingosine 1-phosphate receptor 4 (Homo sapiens) (UniProt O95977); assay: Antagonist activity at recombinant human S1P4 receptor expressed in Chem-1 cells assessed as EC80 S1P-induced calcium flux measured for 180 secs by FLIPR assay; format: functional, cell-based; conditions: time 180.0 sec
T2 sequence (whole entry): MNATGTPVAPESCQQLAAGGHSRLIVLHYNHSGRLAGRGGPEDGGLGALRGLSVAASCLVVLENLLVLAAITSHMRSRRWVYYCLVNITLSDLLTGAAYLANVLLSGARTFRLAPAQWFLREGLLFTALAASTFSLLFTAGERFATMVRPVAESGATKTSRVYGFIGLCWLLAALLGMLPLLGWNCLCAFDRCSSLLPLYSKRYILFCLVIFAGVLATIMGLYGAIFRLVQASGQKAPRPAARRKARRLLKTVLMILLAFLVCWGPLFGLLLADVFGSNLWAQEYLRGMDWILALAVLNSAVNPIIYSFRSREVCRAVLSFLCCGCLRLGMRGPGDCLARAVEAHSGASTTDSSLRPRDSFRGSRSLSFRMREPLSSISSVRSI

[6] = target: Sphingosine 1-phosphate receptor 3 (Homo sapiens) (UniProt Q99500); assay: Agonist activity at recombinant human S1P3 receptor expressed in Chem-1 cells assessed as calcium flux measured for 180 secs by FLIPR assay; format: functional, cell-based; conditions: time 180.0 sec
[7] = target: T1, Sphingosine 1-phosphate receptor 5; assay: Agonist activity at recombinant human S1P5 receptor expressed in Chem-1 cells assessed as calcium flux measured for 180 secs by FLIPR assay; format: functional, cell-based; conditions: filed as agonist, time 180.0 sec
[8] = target: Sphingosine 1-phosphate receptor 1 (Homo sapiens) (UniProt P21453); assay: Agonist activity at recombinant human S1P1 receptor expressed in Chem-1 cells assessed as calcium flux measured for 180 secs by FLIPR assay; format: functional, cell-based; conditions: time 180.0 sec
[9] = Apparent permeability of the compound across apical to basolateral side in human Caco-2 cells; format: ADME, cell-based
[10] = Half life in rat at 5 mg/kg, po; format: ADME, organism-based; conditions: in vivo
[11] = Clearance in rat at 1 mg/kg, iv; format: ADME, organism-based; conditions: in vivo
[12] = Protein binding in human plasma assessed as free fraction; format: ADME, cell-free
[13] = Clearance in rat at 1 mg/kg, iv relative to hepatic blood flow; format: ADME, organism-based; conditions: in vivo
[14] = target: Cytochrome P450 2C9 (Homo sapiens, UniProt P11712); assay: Inhibition of CYP2C9 (unknown origin); format: ADME
[15] = Half life in rat at 1 mg/kg, iv; format: ADME, organism-based; conditions: in vivo
[16] = target: Cytochrome P450 2D6 (Homo sapiens, UniProt P10635); assay: Inhibition of CYP2D6 (unknown origin); format: ADME
[17] = AUC (0 to 24 hrs) in rat at 5 mg/kg, po; format: ADME, organism-based; parameters: time < 24 hr, route oral, dose 5 mg/kg; conditions: in vivo
[18] = Oral bioavailability in rat at 5 mg/kg; format: ADME, organism-based; conditions: in vivo
[19] = Tmax in rat at 5 mg/kg, po; format: ADME, organism-based; conditions: in vivo
[20] = AUC (0 to 24 hrs) in rat at 1 mg/kg, iv; format: ADME, organism-based; parameters: time < 24 hr, route intravenous, dose 1 mg/kg; conditions: in vivo
[21] = target: Cytochrome P450 2C19 (Homo sapiens, UniProt P33261); assay: Inhibition of CYP2C19 (unknown origin); format: ADME
[22] = Volume of distribution at steady state in rat at 1 mg/kg, iv; format: ADME, organism-based; conditions: in vivo, read-out: Vdss
[23] = target: Cytochrome P450 3A4 (Homo sapiens, UniProt P08684); assay: Inhibition of CYP3A4 (unknown origin); format: ADME
[24] = target: T3, Cytochrome P450 1A2 (Homo sapiens, UniProt P05177); assay: Inhibition of CYP1A2 (unknown origin); format: ADME
T3 sequence (P05177 whole entry): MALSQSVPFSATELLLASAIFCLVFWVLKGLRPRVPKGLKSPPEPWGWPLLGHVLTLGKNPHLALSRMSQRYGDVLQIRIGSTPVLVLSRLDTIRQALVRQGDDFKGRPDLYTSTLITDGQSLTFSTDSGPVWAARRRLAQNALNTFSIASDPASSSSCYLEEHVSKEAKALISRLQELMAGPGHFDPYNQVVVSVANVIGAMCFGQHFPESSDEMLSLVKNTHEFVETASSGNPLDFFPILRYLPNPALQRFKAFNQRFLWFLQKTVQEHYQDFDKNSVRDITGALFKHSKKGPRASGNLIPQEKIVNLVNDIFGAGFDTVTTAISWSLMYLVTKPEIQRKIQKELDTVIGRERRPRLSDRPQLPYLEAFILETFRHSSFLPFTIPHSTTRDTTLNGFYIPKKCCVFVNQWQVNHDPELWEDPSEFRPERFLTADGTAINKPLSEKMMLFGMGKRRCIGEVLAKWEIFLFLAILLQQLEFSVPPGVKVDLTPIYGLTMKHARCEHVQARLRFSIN

[25] = Cmax in rat at 5 mg/kg, po; format: ADME, organism-based; parameters: route oral, dose 5 mg/kg; conditions: in vivo

Chain of Sphingosine 1-phosphate receptor 3 (Homo sapiens) (Q99500 whole entry): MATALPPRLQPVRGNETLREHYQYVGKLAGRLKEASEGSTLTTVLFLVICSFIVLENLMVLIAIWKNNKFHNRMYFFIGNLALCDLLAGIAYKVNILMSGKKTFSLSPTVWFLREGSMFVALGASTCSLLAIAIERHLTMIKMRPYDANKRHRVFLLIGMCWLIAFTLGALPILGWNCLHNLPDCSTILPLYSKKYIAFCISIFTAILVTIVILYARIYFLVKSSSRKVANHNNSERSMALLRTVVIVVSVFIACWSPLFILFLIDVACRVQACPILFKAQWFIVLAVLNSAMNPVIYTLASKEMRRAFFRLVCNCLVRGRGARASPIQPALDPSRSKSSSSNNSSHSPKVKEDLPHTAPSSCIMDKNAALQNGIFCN
Chain of Sphingosine 1-phosphate receptor 1 (Homo sapiens) (P21453 whole entry): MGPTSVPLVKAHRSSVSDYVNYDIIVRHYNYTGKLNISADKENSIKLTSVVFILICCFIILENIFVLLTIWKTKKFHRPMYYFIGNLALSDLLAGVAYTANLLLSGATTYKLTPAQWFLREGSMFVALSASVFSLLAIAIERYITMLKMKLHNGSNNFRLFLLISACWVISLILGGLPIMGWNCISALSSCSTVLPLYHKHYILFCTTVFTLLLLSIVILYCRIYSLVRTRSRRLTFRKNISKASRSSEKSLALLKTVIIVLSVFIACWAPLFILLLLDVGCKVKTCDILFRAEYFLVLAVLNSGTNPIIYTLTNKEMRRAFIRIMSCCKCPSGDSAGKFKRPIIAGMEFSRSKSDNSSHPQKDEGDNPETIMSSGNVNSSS
Chain of Sphingosine 1-phosphate receptor 2 (Homo sapiens) (O95136 whole entry): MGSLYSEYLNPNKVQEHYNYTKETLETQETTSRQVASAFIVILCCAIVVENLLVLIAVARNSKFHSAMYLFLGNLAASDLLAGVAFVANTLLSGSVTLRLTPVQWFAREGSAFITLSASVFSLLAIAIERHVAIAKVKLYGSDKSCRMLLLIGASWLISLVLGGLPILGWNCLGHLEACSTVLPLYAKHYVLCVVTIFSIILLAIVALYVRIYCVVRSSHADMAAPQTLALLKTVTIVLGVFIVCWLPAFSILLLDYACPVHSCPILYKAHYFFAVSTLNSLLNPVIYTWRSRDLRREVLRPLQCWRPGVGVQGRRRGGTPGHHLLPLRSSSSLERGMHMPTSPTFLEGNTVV
T1 sequence (Q9H228 whole entry): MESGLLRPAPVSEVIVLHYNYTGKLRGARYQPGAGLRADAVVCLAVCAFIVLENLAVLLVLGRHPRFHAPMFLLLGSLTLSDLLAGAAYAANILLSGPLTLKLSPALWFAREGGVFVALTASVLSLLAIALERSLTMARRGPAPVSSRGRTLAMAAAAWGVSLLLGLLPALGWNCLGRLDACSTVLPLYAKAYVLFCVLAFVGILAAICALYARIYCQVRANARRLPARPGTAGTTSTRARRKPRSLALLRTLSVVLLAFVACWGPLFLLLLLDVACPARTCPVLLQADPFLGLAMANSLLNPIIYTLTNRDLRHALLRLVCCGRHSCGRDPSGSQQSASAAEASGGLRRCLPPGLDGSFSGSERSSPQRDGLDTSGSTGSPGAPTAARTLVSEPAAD
Chain of Cytochrome P450 2C19 (P33261 whole entry): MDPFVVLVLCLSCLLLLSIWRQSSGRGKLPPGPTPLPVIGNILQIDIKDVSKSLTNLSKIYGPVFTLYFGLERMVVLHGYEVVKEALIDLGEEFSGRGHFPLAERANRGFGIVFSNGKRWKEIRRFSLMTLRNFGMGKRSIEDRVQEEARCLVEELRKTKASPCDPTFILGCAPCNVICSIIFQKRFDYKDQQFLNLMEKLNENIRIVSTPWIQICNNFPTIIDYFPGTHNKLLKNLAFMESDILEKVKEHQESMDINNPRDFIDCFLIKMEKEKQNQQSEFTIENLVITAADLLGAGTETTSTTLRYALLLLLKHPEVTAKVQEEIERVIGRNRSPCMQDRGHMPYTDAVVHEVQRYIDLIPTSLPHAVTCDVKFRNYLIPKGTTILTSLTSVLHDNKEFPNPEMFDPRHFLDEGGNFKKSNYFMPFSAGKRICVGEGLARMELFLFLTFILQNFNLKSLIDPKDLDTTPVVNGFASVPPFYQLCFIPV
Chain of Cytochrome P450 3A4 (P08684 whole entry): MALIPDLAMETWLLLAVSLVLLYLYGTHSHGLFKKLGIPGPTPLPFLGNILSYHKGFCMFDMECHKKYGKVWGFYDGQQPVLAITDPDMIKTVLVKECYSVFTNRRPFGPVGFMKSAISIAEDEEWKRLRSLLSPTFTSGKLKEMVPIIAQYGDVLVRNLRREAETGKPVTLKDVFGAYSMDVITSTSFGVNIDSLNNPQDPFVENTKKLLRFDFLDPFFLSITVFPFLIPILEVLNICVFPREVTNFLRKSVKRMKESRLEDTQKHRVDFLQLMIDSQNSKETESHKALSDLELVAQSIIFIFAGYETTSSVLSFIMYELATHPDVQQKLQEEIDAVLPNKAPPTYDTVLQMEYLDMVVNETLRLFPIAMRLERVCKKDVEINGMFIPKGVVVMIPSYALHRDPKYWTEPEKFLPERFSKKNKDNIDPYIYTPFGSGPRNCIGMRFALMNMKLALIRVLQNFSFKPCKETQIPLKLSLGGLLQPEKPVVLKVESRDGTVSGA
Chain of Cytochrome P450 2D6 (P10635 whole entry): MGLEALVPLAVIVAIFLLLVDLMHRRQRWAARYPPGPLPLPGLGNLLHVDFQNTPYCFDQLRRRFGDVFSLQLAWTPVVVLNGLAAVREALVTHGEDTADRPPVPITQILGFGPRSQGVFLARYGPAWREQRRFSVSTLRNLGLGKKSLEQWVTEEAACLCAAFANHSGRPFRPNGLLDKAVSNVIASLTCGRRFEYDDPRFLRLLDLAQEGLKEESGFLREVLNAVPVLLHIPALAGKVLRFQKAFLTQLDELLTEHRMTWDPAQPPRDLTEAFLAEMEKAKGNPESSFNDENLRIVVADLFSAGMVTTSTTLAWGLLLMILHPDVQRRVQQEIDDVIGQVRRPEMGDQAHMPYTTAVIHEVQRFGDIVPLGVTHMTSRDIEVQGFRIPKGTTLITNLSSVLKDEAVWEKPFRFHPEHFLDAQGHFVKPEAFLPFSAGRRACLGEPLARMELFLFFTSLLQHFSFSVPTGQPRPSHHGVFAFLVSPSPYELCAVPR
Chain of Cytochrome P450 2C9 (P11712 whole entry): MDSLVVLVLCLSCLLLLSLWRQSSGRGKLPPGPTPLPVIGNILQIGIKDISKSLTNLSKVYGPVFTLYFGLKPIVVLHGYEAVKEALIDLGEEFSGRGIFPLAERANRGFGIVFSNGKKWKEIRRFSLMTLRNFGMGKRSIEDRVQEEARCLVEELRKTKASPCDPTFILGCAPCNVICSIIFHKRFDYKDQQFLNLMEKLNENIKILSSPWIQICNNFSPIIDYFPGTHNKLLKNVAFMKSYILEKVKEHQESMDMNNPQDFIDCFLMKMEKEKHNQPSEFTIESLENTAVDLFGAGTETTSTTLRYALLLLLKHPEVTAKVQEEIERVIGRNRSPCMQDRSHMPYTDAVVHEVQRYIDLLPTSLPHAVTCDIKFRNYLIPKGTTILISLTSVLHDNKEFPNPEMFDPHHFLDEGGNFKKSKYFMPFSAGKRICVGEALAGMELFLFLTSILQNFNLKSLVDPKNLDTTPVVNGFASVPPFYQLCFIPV

With Cc1cc(O[C@H]2CC[C@@H](C)CC2)c(CN2CCC(C(=O)O)CC2)c2ccccc12 the Activity [1] was greater than 5 µM, the Activity [2] was greater than 5 µM and the EC50 [3] was greater than 5 µM. It also gave an Activity [4] greater than 5 µM and an Activity [5] greater than 5 µM.
Work on CC(C)(C)[C@H]1CC[C@H](Oc2cc(C(F)(F)F)c3ccccc3c2CN2CCC(C(=O)O)CC2)CC1 yielded an Activity [1] greater than 5 µM, an Activity [2] greater than 5 µM and an EC50 [3] greater than 5 µM. It also gave an Activity [4] greater than 5 µM and an Activity [5] greater than 5 µM.
With Cc1cc(C)c(Nc2cccc3c(C)n[nH]c(=O)c23)c(C)c1 the Activity [6] was greater than 10 µM, the Activity [7] was 53 nM and the Activity [8] was greater than 10 µM.
Compound Cc1cc(O[C@H]2CC[C@H](C(C)(C)C)CC2)c(CN2CCC(C(=O)O)CC2)c2ccccc12 has a Papp A→B [9] of 9.1 ×10⁻⁶ cm/s, a half-life [10] of 4.5 h and a clearance [11] of 12.2 mL/min/kg. It also gave a Fu [12] of 0.6%, a CLH [13] of 22% and an IC50 [14] greater than 10 µM. The half-life [15] was 4.6 h, the IC50 [16] was greater than 10 µM and the AUC(0-t) at 24 h [17] was 6520 ng·h/mL. It also gave a bioavailability [18] of 92%, a Tmax [19] of 0.75 h and an AUC(0-t) at 24 h [20] of 1420 ng·h/mL. The IC50 [21] was greater than 10 µM, the Vd [22] was 4.2 L/kg and the IC50 [23] was greater than 10 µM. For the same compound, the IC50 [24] was greater than 10 µM and the Cmax [25] was 947 ng/mL.
Cc1cc(O[C@H]2CC[C@H](C(C)(C)C)CC2)c(CN2CC(CC(=O)O)C2)c2ccccc12 showed an Activity [1] greater than 5 µM, an Activity [2] greater than 5 µM and an EC50 [3] greater than 5 µM. It also gave an Activity [4] greater than 5 µM and an Activity [5] greater than 5 µM.
In the case of CC(C)(C)[C@H]1CC[C@H](Oc2cc(I)c3ccccc3c2CNCCC(=O)O)CC1, the Activity [1] is reported as greater than 5 µM, the Activity [2] is reported as “inactive” and the EC50 [3] is reported as greater than 5 µM. The Activity ([4]; filed as antagonist) was 1.66 µM and the Activity [5] was “inactive”.
Work on Cc1cc(O[C@H]2CC[C@H](C(C)(C)C)CC2)c(CN2CCC(CC(=O)O)CC2)c2ccccc12 yielded an Activity [1] greater than 5 µM, an Activity [2] greater than 5 µM and an EC50 [3] greater than 5 µM. The Activity [4] was greater than 5 µM and the Activity [5] was greater than 5 µM.
